The record followed here is PubChem BioAssay (NCI).

Among the test systems are SF-268 CNS; SF-295 CNS; SK-MEL-2 melanoma; MALME-3M melanoma; HOP-92 NSCLC; OVCAR-4 ovarian; HS 578T breast; MOLT-4 leukemia; LOX IMVI melanoma; TK-10 renal.
Experiment in all cases: NCI tumour cell line growth inhibition, 48 h

Structures are written as SMILES.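 Dose response: 5 concentrations. Exposure: 48 h. Format: 96-well plates. Endpoint: linear interpolation; highest concentration if not reached. GI50 is the concentration that inhibits growth by half. TGI is the concentration that stops growth completely.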

For `O=C1c2ccccc2-c2c1c1ccc([N+](=O)[O-])cc1c(=O)n2CCN1CCOCC1`, the GI50 in the assay on SF-268 CNS is above 100 µM; in the assay on SF-295 CNS it was 92 µM; in the assay with SK-MEL-2 melanoma, above 100 µM; in the assay on MALME-3M melanoma, above 100 µM; with HOP-92 NSCLC it was 26.2 µM; with OVCAR-4 ovarian it was above 100 µM. In addition, the GI50 with HS 578T breast is above 100 µM; with MOLT-4 leukemia, 48.8 µM; with LOX IMVI melanoma, 37.8 µM; in the assay with TK-10 renal, above 100 µM. The TGI with SF-268 CNS, in the assay on SF-295 CNS, in the assay with SK-MEL-2 melanoma, in the assay with MALME-3M melanoma, in the assay on HOP-92 NSCLC and in the assay with OVCAR-4 ovarian was above 100 µM in each case. The TGI in the assay with HS 578T breast, in the assay on MOLT-4 leukemia, in the assay with LOX IMVI melanoma and in the assay with TK-10 renal was above 100 µM each time.
`Cc1cc(O)cc(-c2nn(C)cc2-c2cc(N3CCOCC3)nc(-c3cccnc3)n2)c1`: the GI50 is 7.29 µM in the assay with SF-268 CNS; 3.28 µM in the assay on SF-295 CNS; 6.28 µM in the assay with SK-MEL-2 melanoma; 11.6 µM in the assay with MALME-3M melanoma; 1.66 µM in the assay with HOP-92 NSCLC; 7.74 µM in the assay with OVCAR-4 ovarian. Moreover, the GI50 is 2.04 µM in the assay with HS 578T breast, 3.65 µM in the assay with MOLT-4 leukemia, 4.16 µM in the assay on LOX IMVI melanoma and 8.68 µM with TK-10 renal. Moreover, the TGI in the assay with SF-268 CNS was above 100 µM; in the assay on SF-295 CNS, 14.6 µM; in the assay with SK-MEL-2 melanoma it was 31.1 µM; in the assay on MALME-3M melanoma, 40.3 µM; in the assay with HOP-92 NSCLC, 8.64 µM; in the assay on OVCAR-4 ovarian it was above 100 µM. The TGI in the assay with HS 578T breast is 9.06 µM; in the assay with MOLT-4 leukemia, above 100 µM; in the assay with LOX IMVI melanoma, 27.3 µM; in the assay on TK-10 renal it was 95.3 µM.
Consider `CN1CCN(c2ccc(NC(=O)c3cncnc3Nc3ccc4c(ccn4Cc4cccc(F)c4)c3)cc2)CC1`, for which the GI50 in the assay with SF-268 CNS was 4.3 µM; in the assay with SF-295 CNS it was 5.41 µM; in the assay on SK-MEL-2 melanoma it was 5.2 µM; in the assay with MALME-3M melanoma, 0.524 µM; in the assay with HOP-92 NSCLC it was 3.54 µM; with OVCAR-4 ovarian it was 3.97 µM. For the same compound, the GI50 with HS 578T breast was 3.63 µM; in the assay with MOLT-4 leukemia, 0.922 µM; in the assay on LOX IMVI melanoma, 0.591 µM; in the assay with TK-10 renal it was 5.87 µM. In addition, the TGI was determined as 9.17 µM in the assay with SF-268 CNS; 10.5 µM with SF-295 CNS; 10.7 µM in the assay with SK-MEL-2 melanoma; 0.976 µM in the assay with MALME-3M melanoma; 8.42 µM in the assay with HOP-92 NSCLC; 8.66 µM in the assay on OVCAR-4 ovarian. Also, the TGI with HS 578T breast came to 11.8 µM; in the assay with MOLT-4 leukemia, 3.14 µM; in the assay on LOX IMVI melanoma, 1.16 µM; in the assay on TK-10 renal, 11.1 µM.
Turning to `CCOc1cc(CCNC)c2c(ccc3ccc(OC)c(O)c32)c1OC`, the TGI in the assay with SF-268 CNS came out at 38.3 µM; with SF-295 CNS it was 30.1 µM; in the assay on SK-MEL-2 melanoma, 34.2 µM; in the assay on MALME-3M melanoma, 20 µM; with HOP-92 NSCLC it was 25.2 µM; in the assay on OVCAR-4 ovarian, 27.2 µM. In addition, the TGI turned out to be 45 µM in the assay on HS 578T breast, 26.4 µM in the assay on MOLT-4 leukemia, 24.2 µM with LOX IMVI melanoma and 32.7 µM in the assay on TK-10 renal.
As to `CCN(CC)CCC(CNc1c(C)cnc2cc(Cl)ccc12)c1ccc(Cl)c(Cl)c1` (stereo not drawn), the GI50 is 8.3 µM in the assay with SF-268 CNS; 1.67 µM in the assay with SF-295 CNS; 2.67 µM in the assay with SK-MEL-2 melanoma; 1.88 µM in the assay on MALME-3M melanoma; 1.96 µM with HOP-92 NSCLC; 3.81 µM in the assay on OVCAR-4 ovarian. Also, the GI50 with HS 578T breast was 4.26 µM; with MOLT-4 leukemia, 2.88 µM; with LOX IMVI melanoma, 1.59 µM; with TK-10 renal it was 5.03 µM. Besides, the TGI with SF-268 CNS is 23.8 µM; with SF-295 CNS it was 3.75 µM; in the assay on SK-MEL-2 melanoma it was 7.73 µM; with MALME-3M melanoma, 3.5 µM; in the assay on HOP-92 NSCLC, 8.03 µM; with OVCAR-4 ovarian, 19.2 µM. Moreover, the TGI in the assay on HS 578T breast amounted to 23.1 µM; with MOLT-4 leukemia, 10.1 µM; in the assay on LOX IMVI melanoma it was 3.14 µM; with TK-10 renal, 17.1 µM.
For `CCN1C(=O)N[C@H]2[C@@H]3NC(=O)c4ccc(Cl)n4[C@@H]3C[C@]21O`, the GI50 is 0.502 µM with SF-268 CNS; 1 µM with SF-295 CNS; 0.301 µM in the assay with SK-MEL-2 melanoma; 0.653 µM in the assay with MALME-3M melanoma; 1.04 µM in the assay on HOP-92 NSCLC; 0.571 µM in the assay with OVCAR-4 ovarian. Moreover, the GI50 with HS 578T breast is 0.578 µM; in the assay with MOLT-4 leukemia it was 0.346 µM; in the assay on LOX IMVI melanoma, 0.279 µM; with TK-10 renal it was 1.66 µM. Also, the TGI with SF-268 CNS stood at 52.3 µM; in the assay on SF-295 CNS, 4.93 µM; in the assay on SK-MEL-2 melanoma, 1.21 µM; in the assay with MALME-3M melanoma it was 4.66 µM; in the assay with HOP-92 NSCLC, 7.69 µM; in the assay with OVCAR-4 ovarian it was 7.99 µM. The TGI with HS 578T breast is 13.2 µM; with MOLT-4 leukemia, 2.37 µM; in the assay with LOX IMVI melanoma, 1.3 µM; with TK-10 renal it was 12.5 µM.
For the compound `COc1ccccc1N1CCN(CC(O)Cn2c(=O)c3c(OC)nc(C)cc3c(=O)n2-c2ccccc2)CC1` (stereo not drawn), the GI50 in the assay on SF-268 CNS was 62.1 µM; in the assay on SF-295 CNS, 25.8 µM; in the assay on SK-MEL-2 melanoma, 43.9 µM; in the assay on MALME-3M melanoma, above 100 µM; with HOP-92 NSCLC, 15.7 µM; in the assay on OVCAR-4 ovarian, above 100 µM. For the same compound, the GI50 is 25.7 µM in the assay with HS 578T breast, above 100 µM in the assay on MOLT-4 leukemia, 30.5 µM in the assay with LOX IMVI melanoma and 19.4 µM in the assay with TK-10 renal. Besides, the TGI with SF-268 CNS is above 100 µM; in the assay on SF-295 CNS it was above 100 µM; with SK-MEL-2 melanoma, above 100 µM; in the assay with MALME-3M melanoma, above 100 µM; in the assay on HOP-92 NSCLC it was 36 µM; with OVCAR-4 ovarian, above 100 µM. In addition, the TGI in the assay on HS 578T breast is above 100 µM; in the assay with MOLT-4 leukemia, above 100 µM; in the assay with LOX IMVI melanoma, above 100 µM; in the assay with TK-10 renal, 81.7 µM.
Regarding `COc1ccccc1CNC(=O)/C=C/c1ccc(O)c(O)c1`, the GI50 in the assay with SF-268 CNS is 90.7 µM; with SF-295 CNS, above 100 µM; with SK-MEL-2 melanoma, above 100 µM; in the assay on MALME-3M melanoma, 50.3 µM; in the assay on HOP-92 NSCLC, 48.4 µM; with OVCAR-4 ovarian, 40 µM. For the same compound, the GI50 in the assay with HS 578T breast is above 100 µM; with LOX IMVI melanoma, 26.3 µM; with TK-10 renal, 17.9 µM. The TGI in the assay with SF-268 CNS, in the assay with SF-295 CNS, in the assay with SK-MEL-2 melanoma, in the assay on MALME-3M melanoma, in the assay with HOP-92 NSCLC and in the assay on OVCAR-4 ovarian was above 100 µM each time. Also, the TGI in the assay with HS 578T breast, in the assay with LOX IMVI melanoma and in the assay on TK-10 renal was above 100 µM each time.
